Assay results as given in patent US9708266B2, “Cyclohexyl pyridine derivative” (priority 2014, dated 2017).

Experiments:
Assay type in all cases: in vivo
NK1 receptor = NK1 receptor (Meriones unguiculatus (Mongolian jird) (Gerbillus unguiculatus), UniProt Q5DUB1); test: Effect on GR73632-induced foot-tapping; details: male gerbil, 0.1 mg/kg iv, GR73632 icv after four hours
Description: (§1) The test compound solution was prepared by dissolving the test compound in a vehicle (a mixture of 50% N,N-dimethylacetamide (Wako Pure Chemical Industries), 30% propylene glycol (Wako Pure Chemical Industries), 4% 2-hydroxypropyl-3-cyclodextrin (Wako Pure Chemical Industries) and 16% distilled water).
A male gerbil (Japan SLC) was anesthetized with isoflurane, and 0.1 mg/kg of a test compound was administered from the jugular vein. After four hours, GR73632 (5 pmol/5 μl saline), which is an NK1 receptor agonist, was administered into the cerebral ventricle at the part 1 mm lateral to and 4.5 mm below the bregma in the head, under anesthesia with isoflurane. After the administration, the gerbil was moved to an observation cage, and the foot-tapping period during 30 minutes after the recovery of the righting reflex was measured. The foot-tapping inhibition rate (%) of each test compound was calculated by the following equation. Foot-tapping inhibition rate (%)={1−(Foot-tapping period when test compound was administered)/(Foot-tapping period when solvent was administered)}×100 (2) Measurement of Drug Concentrations

[1] = system: cisplatin-induced acute and delayed emetic response; test: Effect on cisplatin-induced acute and delayed emetic response; details: male ferret, 0.01 or 0.1 mg/kg iv, cisplatin 5 mg/kg ip
Description: The vertical axes show the number of retching and vomiting (Retches+Vomits) (the mean+standard error of 3 examples of control group, the mean+standard error of 3 examples of the group intravenously administered with 0.01 mg/kg, and the mean+standard error of 3 examples of the group intravenously administered with 0.1 mg/kg).
Effect on Cisplatin-Induced Acute and Delayed Emetic Response
as §1, with “2-hydroxypropyl-β-cyclodextrin” for “2-hydroxypropyl-3-cyclodextrin”, “water). The vehicle only was administered to the control group.” for “water).”
Under anesthesia with isoflurane, 0.01 mg/kg or 0.1 mg/kg of the test compound was intravenously administered to a male ferret (Marshall BioResources Japan) from the jugular vein. Cisplatin in saline, which was heated to 40-50° C., was intraperitoneally administered at 5 mg/kg one hour after the drug administration.

[2] = Ferret pharmacokinetic test; details: male ferret, plasma
Description: Ferret Pharmacokinetic Test
The test compound solution for intravenous administration was prepared by dissolving the test compound in a vehicle (a mixture of 50% N,N-dimethylacetamide (Wako Pure Chemical Industries), 30% propylene glycol (Wako Pure Chemical Industries), 4% 2-hydroxypropyl-β-cyclodextrin (Wako Pure Chemical Industries) and 16% distilled water). As an oral administration solution, the suspension (0.5% methylcelluose) was used.
Under anesthesia with isoflurane, 0.1 mg/kg of the test compound was intravenously administered to a male ferret (Marshall BioResources Japan) from the femoral vein. In the case of oral administration, 1 mg/kg of the test compound was orally administered to an awake animal. After the administration of the test compound, blood samples were taken sequentially from the brachial cephalic vein up to 7 days after the administration. Through a quantitative analysis using liquid chromatography-mass spectrometry (LC/MS), the concentrations of the test compound in the plasma were measured.
In the tables, Ex. No. means the Example number. t1/2, CLtot and Vss are the half-life, the total body clearance and the steady-state volume of distribution, based on the plasma concentrations in the case of intravenous administration, respectively. Cmax, AUC and BA are the maximum plasma test compound concentration, the area under the plasma test compound concentration-time curve within 7 days after the administration and the bioavailability, in the case of oral administration, respectively.

NK1 receptor, sequence (Q5DUB1 whole entry): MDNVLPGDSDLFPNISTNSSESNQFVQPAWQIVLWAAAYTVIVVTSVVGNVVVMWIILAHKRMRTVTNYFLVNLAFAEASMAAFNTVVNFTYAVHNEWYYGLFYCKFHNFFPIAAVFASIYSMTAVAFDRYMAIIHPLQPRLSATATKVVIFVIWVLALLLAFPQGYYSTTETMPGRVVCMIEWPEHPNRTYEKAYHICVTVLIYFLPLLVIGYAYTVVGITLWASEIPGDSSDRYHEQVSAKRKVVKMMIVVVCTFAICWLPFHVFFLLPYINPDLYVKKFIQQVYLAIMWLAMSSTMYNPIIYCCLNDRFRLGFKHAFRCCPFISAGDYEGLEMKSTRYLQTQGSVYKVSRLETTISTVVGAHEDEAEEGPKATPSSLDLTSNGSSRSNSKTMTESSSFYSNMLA

Cc1cc(F)ccc1-c1cc(C2CCC(C(=O)O)CC2)ncc1N(C)C(=O)C(C)(C)c1cc(C(F)(F)F)cc(C(F)(F)F)c1 (stereo not drawn) [Example 1, 4-[5-{[2-(3,5-Bistrifluoromethylphenyl)-2-methylpropionyl]methylamino}-4-(4-fluoro-2-methylphenyl)pyridin-2-yl]cyclohexanecarboxylic acid]
Inhibition (foot-tapping inhibition rate) (NK1 receptor): 98%

Cc1cc(F)ccc1-c1cc(C2CCCC(CC(=O)O)C2)ncc1N(C)C(=O)C(C)(C)c1cc(C(F)(F)F)cc(C(F)(F)F)c1 (stereo not drawn) [Example 3, {3-[5-{[2-(3,5-Bistrifluoromethylphenyl)-2-methylpropionyl]methylamino}-4-(4-fluoro-2-methylphenyl)pyridin-2-yl]cyclohexyl}acetic acid]
Inhibition (foot-tapping inhibition rate) (NK1 receptor): 100%

Cc1cc(F)ccc1-c1cc(C2(C)CCCC(CC(=O)O)C2)ncc1N(C)C(=O)C(C)(C)c1cc(C(F)(F)F)cc(C(F)(F)F)c1 (stereo not drawn) [Example 4, {3-[5-{[2-(3,5-Bistrifluoromethylphenyl)-2-methylpropionyl]methylamino}-4-(4-fluoro-2-methylphenyl)pyridin-2-yl]-3-methylcyclohexyl}acetic acid]
Inhibition (foot-tapping inhibition rate) (NK1 receptor): 77%

Cc1cc(F)ccc1-c1cc(C2CCC3(CC2)CC3C(=O)O)ncc1N(C)C(=O)C(C)(C)c1cc(C(F)(F)F)cc(C(F)(F)F)c1 (stereo not drawn) [Example 7, 6-[5-{[2-(3,5-Bistrifluoromethylphenyl)-2-methylpropionyl]methylamino}-4-(4-fluoro-2-methylphenyl)pyridin-2-yl]spiro[2.5]octane-1-carboxylic acid]
Inhibition (foot-tapping inhibition rate) (NK1 receptor): 90%

Cc1cc(F)ccc1-c1cc(C2CCC(CC(=O)O)CC2)nc(C#N)c1N(C)C(=O)C(C)(C)c1cc(C(F)(F)F)cc(C(F)(F)F)c1 (stereo not drawn) [Example 8, {4-[5-{[2-(3,5-Bistrifluoromethylphenyl)-2-methylpropionyl]methylamino}-6-cyano-4-(4-fluoro-2-methylphenyl)pyridin-2-yl]cyclohexyl}acetic acid]
Inhibition (foot-tapping inhibition rate) (NK1 receptor): 100%

Cc1ccccc1-c1cc(C2CCC(CC(=O)O)CC2)ncc1N(C)C(=O)C(C)(C)c1cc(C(F)(F)F)cc(C(F)(F)F)c1 (stereo not drawn) [Example 9, {4-[5-{[2-(3,5-Bistrifluoromethylphenyl)-2-methylpropionyl]methylamino}-4-ortho-tolylpyridin-2-yl]-cyclohexyl}acetic acid]
Inhibition (foot-tapping inhibition rate) (NK1 receptor): 75%

Cc1cc(F)ccc1-c1cc(C2CCC(C(C)C(=O)O)CC2)ncc1N(C)C(=O)C(C)(C)c1cc(C(F)(F)F)cc(C(F)(F)F)c1 (stereo not drawn) [Example 10, 2-{4-[5-{[2-(3,5-Bistrifluoromethylphenyl)-2-methylpropionyl]methylamino}-4-(4-fluoro-2-methylphenyl)pyridin-2-yl]cyclohexyl}propionic acid]
Inhibition (foot-tapping inhibition rate) (NK1 receptor): 97%

Cc1cc(F)ccc1-c1cc([C@H]2CC[C@H](C(C)(C)C(=O)O)CC2)ncc1N(C)C(=O)C(C)(C)c1cc(C(F)(F)F)cc(C(F)(F)F)c1 [Example 11, trans-2-{4-[5-{[2-(3,5-Bistrifluoromethylphenyl)-2-methylpropionyl]methylamino}-4-(4-fluoro-2-methylphenyl)pyridin-2-yl]cyclohexyl}-2-methylpropionic acid]
Inhibition (foot-tapping inhibition rate) (NK1 receptor): 95%

Cc1cc(F)ccc1-c1cc([C@H]2CC[C@H](CC(=O)O)CC2)ncc1N(C)C(=O)C(C)(C)c1cc(C(F)(F)F)cc(C(F)(F)F)c1 [Example 13, trans-{4-[5-{[2-(3,5-Bistrifluoromethylphenyl)-2-methylpropionyl]methylamino}-4-(4-fluoro-2-methylphenyl)pyridin-2-yl]cyclohexyl}acetic acid]
Inhibition (foot-tapping inhibition rate) (NK1 receptor): 100% | number of retching and vomiting, delayed phase ([1]; 24 hours to 72 hours): inhibition of the number of retching and vomiting was observed | number of retching and vomiting, acute phase ([1]; up to 24 hours): inhibition of the number of retching and vomiting was observed | clearance ([2]; 0.1 mg/kg intravenous, read-out: CL tot (total body clearance)): 0.13 mL/min/kg | Vd ([2]; 0.1 mg/kg intravenous, read-out: Vss (steady-state volume of distribution)): 0.401 L/kg | half-life ([2]; 0.1 mg/kg intravenous, read-out: t1/2 (half-life)): 41.5 h | AUC ([2]; 1 mg/kg oral, read-out: AUC (area under the plasma concentration-time curve within 7 days) (converted)): 88200 ng·h/mL | bioavailability ([2]; 1 mg/kg oral, read-out: BA (bioavailability)): 66% | Cmax ([2]; 1 mg/kg oral, read-out: Cmax (maximum plasma test compound concentration)): 1260 ng/mL

Cc1cc(F)ccc1-c1cc([C@H]2CC[C@@H](CC(=O)O)CC2)ncc1N(C)C(=O)C(C)(C)c1cc(C(F)(F)F)cc(C(F)(F)F)c1 [Example 14, cis-{4-[5-{[2-(3,5-bistrifluoromethylphenyl)-2-methylpropionyl]methylamino}-4-(4-fluoro-2-methylphenyl)pyridin-2-yl]cyclohexyl}acetic acid]
Inhibition (foot-tapping inhibition rate) (NK1 receptor): 99%

Cc1cc(F)ccc1-c1cc(C2CCC(C)(CC(=O)O)CC2)ncc1N(C)C(=O)C(C)(C)c1cc(C(F)(F)F)cc(C(F)(F)F)c1 (stereo not drawn) [Example 15, {4-[5-{[2-(3,5-Bistrifluoromethylphenyl)-2-methylpropionyl]methylamino}-4-(4-fluoro-2-methylphenyl)pyridin-2-yl]-1-methylcyclohexyl}acetic acid]
Inhibition (foot-tapping inhibition rate) (NK1 receptor): 100%

Cc1ccccc1-c1cc(C2CCC(CC(=O)O)CC2)nc(C#N)c1N(C)C(=O)C(C)(C)c1cc(C(F)(F)F)cc(C(F)(F)F)c1 (stereo not drawn) [Example 16, [4-(5-{[2-(3,5-Bistrifluoromethylphenyl)-2-methylpropionyl]methylamino}-6-cyano-4-ortho-tolylpyridin-2-yl)cyclohexyl]acetic acid]
Inhibition (foot-tapping inhibition rate) (NK1 receptor): 93%

Cc1cc(F)ccc1-c1cc(C2CCC(CC(=O)O)CC2)nc(C)c1N(C)C(=O)C(C)(C)c1cc(C(F)(F)F)cc(C(F)(F)F)c1 (stereo not drawn) [Example 18, {4-[5-{[2-(3,5-Bistrifluoromethylphenyl)-2-methylpropionyl]methylamino}-4-(4-fluoro-2-methylphenyl)-6-methylpyridin-2-yl]cyclohexyl}acetic acid]
Inhibition (foot-tapping inhibition rate) (NK1 receptor): 100%

Cc1cc(F)ccc1-c1cc(C2CCC(CC(=O)O)CC2)nc(CO)c1N(C)C(=O)C(C)(C)c1cc(C(F)(F)F)cc(C(F)(F)F)c1 (stereo not drawn) [Example 19, {4-[5-{[2-(3,5-Bistrifluoromethylphenyl)-2-methylpropionyl]methylamino}-4-(4-fluoro-2-methylphenyl)-6-hydroxymethylpyridin-2-yl]cyclohexyl}acetic acid]
Inhibition (foot-tapping inhibition rate) (NK1 receptor): 95%

Cc1cc(F)ccc1-c1cc([C@H]2CC[C@H](CC(=O)O)CC2)nc(C#N)c1N(C)C(=O)C(C)(C)c1cc(C(F)(F)F)cc(C(F)(F)F)c1 [Example 20, trans-{4-[5-{[2-(3,5-Bistrifluoromethylphenyl)-2-methylpropionyl]methylamino}-6-cyano-4-(4-fluoro-2-methylphenyl)pyridin-2-yl]cyclohexyl}acetic acid]
Inhibition (foot-tapping inhibition rate) (NK1 receptor): 100%

Cc1cc(F)ccc1-c1cc([C@H]2CC[C@@H](CC(=O)O)CC2)nc(C#N)c1N(C)C(=O)C(C)(C)c1cc(C(F)(F)F)cc(C(F)(F)F)c1 [Example 21, cis-{4-[5-{[2-(3,5-bistrifluoromethylphenyl)-2-methylpropionyl]methylamino}-6-cyano-4-(4-fluoro-2-methylphenyl)pyridin-2-yl]cyclohexyl}acetic acid]
Inhibition (foot-tapping inhibition rate) (NK1 receptor): 100%
